In patent US8999956B2, “N-[(het)arylalkyl)] pyrazole(thio)carboxamides and their heterosubstituted analogues” (Bayer Intellectual Property GmbH, priority 2010, dated 2015):

Legend:
Alternaria solani = test: In vivo preventive test on Alternaria solani (tomato); settings: 500 ppm of active ingredient, evaluated 7 days after inoculation
Protocol: (§1) Solvent: 49 parts by weight of N,N-dimethylformamide Emulsifier: 1 part by weight of Alkylarylpolyglycolether To produce a suitable preparation of active compound, 1 part by weight of active compound is mixed with the stated amounts of solvent and emulsifier, and the concentrate is diluted with water to the desired concentration. To test for preventive activity, young plants are sprayed with the preparation of active compound at the stated rate of application. One day after this treatment, the plants are inoculated with an aqueous spore suspension of Alternaria solani.

[1] = test system: aflatoxines produced by Aspergillus parasiticus; test: microbe, parasite or virus in culture; format: cell-based
Sphaerotheca fuliginea = test: In vivo preventive test on Sphaerotheca fuliginea (cucumber); settings: 500 ppm of active ingredient, evaluated 7 days after inoculation
Protocol: as §1, with “Sphaerotheca fuliginea. Then the plants are placed in a greenhouse at approximately 23° C. and a relative atmospheric humidity of approximately 70%.” for “Alternaria solani.”

Pyrenophora teres = test: In vivo preventive test on Pyrenophora teres (barley); settings: 500 ppm of active ingredient, evaluated 7-9 days after inoculation
Protocol: as §1, with “alkylaryl polyglycol ether” for “Alkylarylpolyglycolether”, “Pyrenophora teres.” for “Alternaria solani.”

[2] = log P by HPLC on reversed-phase column (EEC Directive 79/831 Annex V.A8); format: physicochemical
Protocol: In table 1, the log P values were determined in accordance with EEC Directive 79/831 Annex V.A8 by HPLC (High Performance Liquid Chromatography) on a reversed-phase column (C18), using the method described below: Temperature: 40° C.; […]

Aspergillus parasiticus = test: microbe, parasite or virus in culture; format: cell-based
Puccinia triticina = test: In vivo preventive test on Puccinia triticina (wheat); settings: 500 ppm of active ingredient, evaluated 8 days after inoculation; for pest or weed control at 500 ppm: Puccinia triticina, 192 h, read-out: Efficacy

Question: What does the source list for CC(CCc1ccccc1Cl)NC(=O)c1c(C(F)F)nn(C)c1F (racemic) [Example 144]?
Answer: Efficacy (Alternaria solani): 100%; % Inhibition of Aflatoxin at 50 μM [1]: 100%; Efficacy (Sphaerotheca fuliginea): 90%; Efficacy (Pyrenophora teres): 100%; logP [2]: 3.21; % Inhibition of fungal growth at 50 μM (Aspergillus parasiticus): 94%

Question: Which results are given for Cc1cccc(C)c1CC(C)CNC(=O)c1c(C(F)F)nn(C)c1F (racemic) [Example 150]?
Answer: Efficacy (Alternaria solani): 80%; % Inhibition of Aflatoxin at 50 μM [1]: 100%; Efficacy (Sphaerotheca fuliginea): 83%; Efficacy (Pyrenophora teres): 100%; logP [2]: 3.44; % Inhibition of fungal growth at 50 μM (Aspergillus parasiticus): 82%

Question: With CC(COc1ccc(Cl)cc1Cl)N(C(=O)c1cn(C)nc1C(F)F)C1CC1 (stereo not drawn) [18 from WO-2010/012795, N-cyclopropyl-N-[1-(2,4-dichlorophenoxy)propan-2-yl]-3-(difluoromethyl)-1-methyl-1H-pyrazole-4-carboxamide, reference compound] as the compound, how does the pest or weed control at 500 ppm (Puccinia triticina) read?
Answer: < 30%

Question: Which results are given for Cc1nn(C)c(F)c1C(=O)N(C(C)CCc1ccc(Cl)c(Cl)c1)C1CC1 (stereo not drawn) [E-13 from WO-2008/101976, N-cyclopropyl-N-[4-(3,4-dichlorophenyl)butan-2-yl]-5-fluoro-1,3-dimethyl-1H-pyrazole-4-carboxamide, reference compound]?
Answer: Efficacy (Puccinia triticina; listed as example E-13 disclosed in patent application WO-2008/101976): no protection; pest or weed control at 500 ppm (Puccinia triticina): 0%

Question: With Cn1nc(C(F)F)c(C(=O)NC(C)(C)CCc2ccccc2Cl)c1F [Example 148] as the compound, how does the Efficacy (Alternaria solani) read?
Answer: 95%

Question: And the “% Inhibition of Aflatoxin at 50 μM” value [1]?
Answer: 90%

Question: And the Efficacy (Pyrenophora teres)?
Answer: 95%

Question: What about the logP [2] of the same compound?
Answer: 3.79

Question: And the “% Inhibition of fungal growth at 50 μM” value (Aspergillus parasiticus)?
Answer: 67%

Question: With Cc1cccc(C)c1OCCNC(=O)c1c(C(F)F)nn(C)c1F [Example 151] as the compound, how does the Efficacy (Alternaria solani) read?
Answer: 90%

Question: What about the “% Inhibition of Aflatoxin at 50 μM” value [1] of the same compound?
Answer: 100%

Question: And the Efficacy (Pyrenophora teres)?
Answer: 94%

Question: What about the logP [2] of the same compound?
Answer: 2.88

Question: What about the “% Inhibition of fungal growth at 50 μM” value (Aspergillus parasiticus) of the same compound?
Answer: 100%

Question: For Cc1cccc(C)c1OCC(C)N(C(=O)c1c(C(F)F)nn(C)c1F)C1CC1 (stereo not drawn) [Example 155], which “% Inhibition of Aflatoxin at 50 μM” value [1] is on record?
Answer: 100%

Question: And the Efficacy (Pyrenophora teres)?
Answer: 100%

Question: And the Efficacy (Puccinia triticina; Table K)?
Answer: 90%

Question: What about the logP [2] of the same compound?
Answer: 3.94

Question: What about the “% Inhibition of fungal growth at 50 μM” value (Aspergillus parasiticus) of the same compound?
Answer: 100%

Question: For CC(CNC(=O)c1c(C(F)F)nn(C)c1F)Cc1cc(Cl)ccc1Cl (stereo not drawn) [Example 165], which Efficacy (Alternaria solani) is on record?
Answer: 90%

Question: What about the “% Inhibition of Aflatoxin at 50 μM” value [1] of the same compound?
Answer: 99%

Question: What about the Efficacy (Pyrenophora teres) of the same compound?
Answer: 100%

Question: And the logP [2]?
Answer: 3.65

Question: What about the “% Inhibition of fungal growth at 50 μM” value (Aspergillus parasiticus) of the same compound?
Answer: 83%

Question: For CN(CCCc1cc(Cl)ccc1Cl)C(=O)c1c(C(F)F)nn(C)c1F [Example 166], which Efficacy (Alternaria solani) is on record?
Answer: 100%

Question: What about the “% Inhibition of Aflatoxin at 50 μM” value [1] of the same compound?
Answer: 100%

Question: What about the Efficacy (Pyrenophora teres) of the same compound?
Answer: 100%

Question: What about the Efficacy (Puccinia triticina; Table K) of the same compound?
Answer: 78%

Question: What about the logP [2] of the same compound?
Answer: 3.48

Question: What about the “% Inhibition of fungal growth at 50 μM” value (Aspergillus parasiticus) of the same compound?
Answer: 88%

Question: With CN(CCCc1cc(Cl)ccc1Cl)C(=O)c1c(C(F)F)nn(C)c1Cl [Example 167] as the compound, how does the Efficacy (Alternaria solani) read?
Answer: 100%

Question: What about the Efficacy (Pyrenophora teres) of the same compound?
Answer: 80%

Question: And the Efficacy (Puccinia triticina; Table K)?
Answer: 70%

Question: And the logP [2]?
Answer: 3.62

Question: With CC(COc1cc(Cl)ccc1Cl)NC(=O)c1c(C(F)F)nn(C)c1F (stereo not drawn) [Example 173] as the compound, how does the Efficacy (Alternaria solani) read?
Answer: 90%

Question: And the “% Inhibition of Aflatoxin at 50 μM” value [1]?
Answer: 100%

Question: And the Efficacy (Pyrenophora teres)?
Answer: 78%

Question: And the logP [2]?
Answer: 3.46

Question: What about the “% Inhibition of fungal growth at 50 μM” value (Aspergillus parasiticus) of the same compound?
Answer: 85%

Question: With CC(COc1cc(Cl)ccc1Cl)NC(=O)c1c(C(F)F)nn(C)c1Cl (stereo not drawn) [Example 174] as the compound, how does the Efficacy (Alternaria solani) read?
Answer: 100%

Question: What about the “% Inhibition of Aflatoxin at 50 μM” value [1] of the same compound?
Answer: 85%

Question: What about the Efficacy (Pyrenophora teres) of the same compound?
Answer: 95%

Question: And the logP [2]?
Answer: 3.69

Question: What about the “% Inhibition of fungal growth at 50 μM” value (Aspergillus parasiticus) of the same compound?
Answer: 67%

Question: What does the source list for CCC(COc1cc(Cl)ccc1Cl)NC(=O)c1c(C(F)F)nn(C)c1F (stereo not drawn) [Example 175]?
Answer: Efficacy (Alternaria solani): 95%; % Inhibition of Aflatoxin at 50 μM [1]: 100%; Efficacy (Pyrenophora teres): 95%; logP [2]: 3.83; % Inhibition of fungal growth at 50 μM (Aspergillus parasiticus): 92%

Question: Which results are given for Cn1nc(C(F)F)c(C(=O)NC(C)(C)CCc2cc(Cl)ccc2Cl)c1F [Example 178]?
Answer: Efficacy (Alternaria solani): 95%; % Inhibition of Aflatoxin at 50 μM [1]: 100%; Efficacy (Pyrenophora teres): 100%; logP [2]: 4.26; % Inhibition of fungal growth at 50 μM (Aspergillus parasiticus): 88%

Question: Which results are given for Cn1nc(C(F)F)c(C(=O)NCCCc2ccc(Cl)cc2Cl)c1F [Example 180]?
Answer: Efficacy (Alternaria solani): 90%; % Inhibition of Aflatoxin at 50 μM [1]: 100%; Efficacy (Pyrenophora teres): 100%; logP [2]: 3.46; % Inhibition of fungal growth at 50 μM (Aspergillus parasiticus): 100%

Question: What does the source list for CC(CCc1ccc(Cl)cc1Cl)N(C(=O)c1c(C(F)F)nn(C)c1Cl)C1CC1 (stereo not drawn) [Example 183]?
Answer: Efficacy (Alternaria solani): 95%; % Inhibition of Aflatoxin at 50 μM [1]: 82%; Efficacy (Pyrenophora teres): 100%; logP [2]: 4.72; % Inhibition of fungal growth at 50 μM (Aspergillus parasiticus): 79%
